Measurements from US8507493B2 (AbbVie Inc., priority 2009, dated 2013).
pKi: −log10 of the molar value. Where two headings read alike, the source gives them in different places.

Tests used:
human 11β-HSD1 = target: T1, human 11β-HSD1 (Homo sapiens, UniProt P28845); assay: Human 11β-HSD1 enzymatic SPA assay; format: biochemical; settings: truncated (24-287aa) human 11β-HSD1, apparent Ki from IC50 by Cheng-Prusoff
T1 construct: truncated (24-287aa) human 11β-HSD1 enzyme; made in house; host or cells: E. coli (lysate, not purified)
Procedure: The ability of test compounds to inhibit human 11β-HSD1 enzymatic activity in vitro was evaluated in a Scintillation Proximity Assay (SPA). Tritiated-cortisone substrate, NADPH cofactor and titrated compound were incubated with truncated (24-287aa) human 11β-HSD1 enzyme at room temperature to allow the conversion to cortisol to occur. The reaction was stopped by adding a non-specific 11β-HSD inhibitor, glycyrrhetinic acid. The tritiated cortisol was captured by a mixture of an anti-cortisol monoclonal antibody and SPA beads coated with anti-mouse antibodies. The reaction plate was shaken at room temperature and the radiolabel bound to SPA beads was then measured on a scintillation counter. The 11β-HSD1 assay was carried out in 96-well microtiter plates in a total volume of […]. To start the assay, 188 μL of master mix which contained 75 nM ^3H-cortisone, 100 nM cortisone and 181 μM NADPH was added to the wells. In order to drive the reaction in the 11β-reductase direction, 1 mM glucose-6-phosphate (G-6-P) and 1 U/mL G-6-P dehydrogenase were also added as a NADPH generating system. Solid compound was dissolved in dimethyl sulfoxide to make a 10 mM stock followed by a subsequent 10-fold serial dilution with dimethyl sulfoxide. Each compound solution in dimethyl sulfoxide was 10-fold diluted in Tris/EDTA buffer (pH 7.4). 22 μL of titrated compound were then added in duplicate to the substrate. Reactions were initiated by the addition of 10 μL of 0.1 mg/mL E. coli lysates overexpressing 11β-HSD1 enzyme. After shaking and incubating plates for 30 minutes at room temperature, reactions were stopped by adding 10 μL of 1 mM glycyrrhetinic acid. The product, tritiated cortisol, was captured by adding 10 μL of 1 μM monoclonal mouse anti-cortisol antibodies and 50 μL of SPA beads coated with anti-mouse antibodies. After shaking for 30 minutes, plates were read in a Microbeta scintillation counter. Percent inhibition was calculated based on the background and the maximal signal. Wells that contained substrate without compound or enzyme were used as the background, while the wells that contained substrate and enzyme without any compound were considered as maximal signal. Percent of inhibition of each compound was calculated relative to the maximal signal and IC50 curves were generated. Assuming competitive inhibition the Cheng-Prusoff equation was used to calculate apparent Ki values from the IC50 values. This assay was applied to 11β-HSD2 as well, whereby 6 nM tritiated cortisol and 250 uM NAD^+ were used as substrate and cofactor, respectively.

patients = settings: cited from earlier work

T1 sequence (P28845 24-287): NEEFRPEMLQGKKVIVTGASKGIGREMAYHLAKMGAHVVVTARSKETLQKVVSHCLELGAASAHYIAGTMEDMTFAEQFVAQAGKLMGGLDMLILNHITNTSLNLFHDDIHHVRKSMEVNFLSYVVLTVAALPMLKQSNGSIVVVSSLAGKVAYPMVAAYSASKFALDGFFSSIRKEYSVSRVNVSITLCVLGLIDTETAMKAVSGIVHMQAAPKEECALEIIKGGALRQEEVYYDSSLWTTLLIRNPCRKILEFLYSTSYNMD

Row | pKi (human 11β-HSD1) | SMILES | lowered intraocular pressure (patients; treatment for 4 days) | lowered intraocular pressure (patients; treatment for 7 days)
1 | 6.00 to 7.00 | COC(=O)C12CC3CC(C1)C(NC(=NC#N)C(C)(C)Oc1ccc(Cl)cc1)C(C3)C2 (stereo not shown) [Example 11, Methyl(E)-4-{[(1E)-2-(4-chlorophenoxy)-N-cyano-2-methylpropanimidoyl]amino}adamantane-1-carboxylate] |  | 
2 | < 6.00 | CC(C)(Oc1ccc(Cl)cn1)C(=NC#N)NC1C2CC3CC1CC(S(N)(=O)=O)(C3)C2 (stereo not shown) [Example 68, (1E)-2-[(5-chloropyridin-2-yl)oxy]-N-cyano-2-methyl-N-[(E)-5-sulfamoyladamantan-2-yl]propanimidamide] |  | 
3 | 6.00 to 7.00 | COC(=O)C12CC3CC(C1)C(NC(=NC#N)C(C)(C)OCc1ccc(C(F)(F)F)cc1)C(C3)C2 (stereo not shown) [Example 17, Methyl(E)-4-[((1E)-N-cyano-2-methyl-2-{[4-(trifluoromethyl)benzyl]oxy}propanimidoyl)amino]adamantane-1-carboxylate] |  | 
4 | 7.00 to 8.00 | CC(C)(Oc1ccc(Cl)cc1F)C(=NC#N)NC1C2CC3CC(C2)CC1C3 (stereo not shown) [Example 62, (1E)-N-[(E)-adamantan-2-yl]-2-(4-chloro-2-fluorophenoxy)-N-cyano-2-methylpropanimidamide] |  | 
5 | 6.00 to 7.00 | COC(=O)C12CC3CC(C1)C(NC(=NC#N)C(C)(C)OCc1ccc(OC)cc1)C(C3)C2 (stereo not shown) [Example 28, Methyl(E)-4-({(1E)-N-cyano-2-[(4-methoxybenzyl)oxy]-2-methylpropanimidoyl}amino)adamantane-1-carboxylate] |  | 
6 | 6.00 to 7.00 | CC(C)(Oc1ccc(Cl)cc1)C(=NC#N)NC12CCC(C(F)F)(CC1)CC2 [Example 85, 2-(4-chlorophenoxy)-N′-cyano-N-[4-(difluoromethyl)bicyclo[2.2.2]oct-1-yl]-2-methylpropanimidamide] |  | 
7 | 7.00 to 8.00 | CC(C)(Oc1ccccc1)C(=NC#N)NC12CCC(C(N)=O)(CC1)CC2 [Example 82, 4-{[N-cyano-2-methyl-2-phenoxypropanimidoyl]amino}bicyclo[2.2.2]octane-1-carboxamide] |  | 
8 | 7.00 to 8.00 | CC(C)(Oc1ccc(F)cc1Cl)C(=S)N[C@@H]1[C@@H]2C[C@@H]3C[C@H]1C[C@@](S(C)(=O)=O)(C3)C2 [Example 12, 2-(2-Chloro-4-fluorophenoxy)-2-methyl-N-[(E)-5-(methylsulfonyl)-2-adamantyl]propanethioamide] |  | 
9 | 7.00 to 8.00 | CC(C)(Oc1ccc(Cl)cc1)C(=NC#N)NC12CCC(C(N)=O)(CC1)CC2 [Example 47, 4-{[2-(4-chlorophenoxy)-N-cyano-2-methylpropanimidoyl]amino}bicyclo[2.2.2]octane-1-carboxamide] |  | 
10 | < 6.00 | CC(C)(Oc1ccccc1)C(=NC#N)NC12CCC(C(N)=O)(CC1)C2 [Example 81, 4-{[N-cyano-2-methyl-2-phenoxypropanimidoyl]amino}bicyclo[2.2.1]heptane-1-carboxamide] |  | 
11 | 7.00 to 8.00 | CC(C)(Oc1ccccc1)C(=NC#N)NC1C2CC3CC1CC(O)(C3)C2 (stereo not shown) [Example 49, (1E)-N′-cyano-N-[(E)-5-hydroxyadamantan-2-yl]-2-methyl-2-phenoxypropanimidamide] |  | 
12 | 7.00 to 8.00 | CC(C)(Oc1ccc(Cl)cc1)C(=S)NC1C2CC3CC1CC(S(C)(=O)=O)(C3)C2 (stereo not shown) [Example 9, 2-(4-Chlorophenoxy)-2-methyl-N-[(E)-5-(methylsulfonyl)-2-adamantyl]propanethioamide] |  | 
13 | 6.00 to 7.00 | CC(C)(Cc1ccc(Cl)cc1)C(=NC#N)NC1C2CC3CC1CC(O)(C3)C2 (stereo not shown) [Example 23, (1E)-3-(4-Chlorophenyl)-N′-cyano-N-[(E)-5-hydroxy-2-adamantyl]-2,2-dimethyl propanimidamide] |  | 
14 | 7.00 to 8.00 | CC(C)(Oc1ccccc1)C(=NC#N)NC12CCC(C(F)F)(CC1)C2 [Example 89, N′-cyano-N-[4-(difluoromethyl)bicyclo[2.2.1]hept-1-yl]-2-methyl-2-phenoxypropanimidamide] |  | 
15 |  | CC1(C)[C@@H](OC(=O)CCC(=O)O)CC[C@]2(C)[C@H]3C(=O)C=C4[C@@H]5C[C@@](C)(C(=O)O)CC[C@]5(C)CC[C@@]4(C)[C@]3(C)CC[C@@H]12 [carbenoxolone] | 10% | 17%
16 | < 6.00 | CC(C)(Oc1ccc(Cl)cc1)C(=NC#N)NC12CCC(C(=O)O)(CC1)CC2 [Example 46, 4-{[2-(4-chlorophenoxy)-N-cyano-2-methylpropanimidoyl]amino}bicyclo[2.2.2]octane-1-carboxylic acid] |  | 
17 | 6.00 to 7.00 | CC(C)(Oc1ccc(Cl)cc1)C(=NC#N)NC1CC2CCC1C2 (stereo not drawn) [Example 42, N-[exo-Bicyclo[2.2.1]hept-2-yl]-2-(4-chlorophenoxy)-N′-cyano-2-methylpropanimidamide] |  | 
18 | 7.00 to 8.00 | CC(C)(Oc1ccccc1)C(=NC#N)NC12CCC(C(F)F)(CC1)CC2 [Example 86, N-cyano-N-[4-(difluoromethyl)bicyclo[2.2.2]oct-1-yl]-2-methyl-2-phenoxypropanimidamide] |  | 
